Results: ChEMBL document CHEMBL1139736, “Microwave expedited synthesis of 5-aminocamptothecin analogs: Inhibitors of hypoxia inducible factor HIF-1alpha” (2006)

What follows are molecules tested on LNCaP C4-2 (assay: Inhibition of HIF1alpha production in c4-2 cells at 10 uM after 24 hrs relative to control). Conditions: Homo sapiens, LNCaP C4-2, 24 h.
Type: functional

Structure (SMILES)	inhibition at 10 µM [%]
CC[C@@]1(O)C(=O)OCc2c1c(NCc1cccc(F)c1)c1n(c2=O)Cc2cc3ccccc3nc2-1	0
CC[C@@]1(O)C(=O)OCc2c1c(NCc1ccc(F)cc1)c1n(c2=O)Cc2cc3ccccc3nc2-1	40
CC[C@@]1(O)C(=O)OCc2c1cc1n(c2=O)Cc2cc3c(CN(C)C)c(O)ccc3nc2-1 [TOPOTECAN]	69
CCCNc1c2c(c(=O)n3c1-c1nc4ccccc4cc1C3)COC(=O)[C@]2(O)CC	76
CC[C@@]1(O)C(=O)OCc2c1c(NCCF)c1n(c2=O)Cc2cc3ccccc3nc2-1	88
CC[C@@]1(O)C(=O)OCc2c1c(NCc1ccc(OC)cc1)c1n(c2=O)Cc2cc3ccccc3nc2-1	9
CC[C@@]1(O)C(=O)OCc2c1cc1n(c2=O)Cc2cc3ccccc3nc2-1 [CAMPTOTHECIN]	69

These molecules were tested on LNCaP C4-2 (assay: Inhibition of HIF1-alpha production in c4-2 cells at 20 nM after 24 hrs relative to control). Conditions: Homo sapiens, LNCaP C4-2, 24 h.
Type: functional

Structure (SMILES)	inhibition at 0.02 µM [%]
CO[C@H]1C[C@@H]2CC[C@@H](C)[C@@](O)(O2)C(=O)C(=O)N2CCCC[C@H]2C(=O)O[C@H]([C@H](C)C[C@@H]2CC[C@@H](O)[C@H](OC)C2)CC(=O)[C@H](C)/C=C(\C)[C@@H](O)[C@@H](OC)C(=O)[C@H](C)C[C@H](C)/C=C/C=C/C=C/1C [SIROLIMUS]	35
